Source: the NIST ThermoML archive (doi:10.1021/je0340755)
Numbers after ± are expanded uncertainties.

Experiment: xn = mol fraction of the nth substance listed
Conditions: 101.3 kPa, Liquid; for viscosity: Capillary tube (Ostwald / Ubbelohde) method

CC(O)CO (configuration not stated) [1,2-propanediol] + O
Conditions | mass density, 308.15 K [kg/m3] | mass density, 318.15 K [kg/m3] | speed of sound, 308.15 K [m/s] | speed of sound, 318.15 K [m/s] | viscosity, 308.15 K [mPa·s] | viscosity, 318.15 K [mPa·s]
x2 = 0.044 | 1026.01 ± 0.41 | 1017.94 ± 0.39 | 1502.9 ± 6.2 | 1451.7 ± 6.1 | – | –
x2 = 0.0987 | 1026.76 ± 0.41 | 1018.71 ± 0.39 | 1509.5 ± 6.3 | 1458.8 ± 6.1 | – | –
x2 = 0.1484 | 1027.45 ± 0.4 | 1019.41 ± 0.38 | 1513.1 ± 6.3 | 1463.2 ± 6.1 | – | –
x2 = 0.2498 | 1028.92 ± 0.4 | 1020.89 ± 0.37 | 1524.5 ± 6.3 | 1476.1 ± 6.2 | – | –
x2 = 0.3494 | 1030.43 ± 0.39 | 1022.37 ± 0.37 | 1541.8 ± 6.3 | 1495.1 ± 6.2 | – | –
x2 = 0.4494 | 1031.91 ± 0.39 | 1023.79 ± 0.36 | 1565.2 ± 6.4 | 1520.3 ± 6.3 | – | –
x2 = 0.5029 | 1032.59 ± 0.38 | 1024.44 ± 0.36 | 1581.4 ± 6.5 | 1537.6 ± 6.3 | – | 5.202 ± 0.068
x2 = 0.5499 | 1033.05 ± 0.38 | 1024.88 ± 0.36 | 1598.4 ± 6.5 | – | – | 4.639 ± 0.068
x2 = 0.5597 | 1033.12 ± 0.38 | – | 1602.2 ± 6.5 | – | – | 4.528 ± 0.068
x2 = 0.6501 | 1033.19 ± 0.37 | – | 1640 ± 6.6 | – | – | 3.576 ± 0.066
x2 = 0.7499 | 1031.14 ± 0.36 | – | 1672.3 ± 6.7 | – | – | 2.675 ± 0.065
x2 = 0.85 | 1024.53 ± 0.34 | – | 1660.9 ± 6.7 | – | – | 1.864 ± 0.064
x2 = 0.9003 | 1018.14 ± 0.31 | – | 1628.3 ± 6.6 | – | – | 1.462 ± 0.064
x2 = 0.9115 | 1016.3 ± 0.31 | – | 1618.4 ± 6.6 | – | – | 1.37 ± 0.063
x2 = 0.9154 | 1015.63 ± 0.31 | – | 1614.8 ± 6.6 | – | – | 1.338 ± 0.063
x2 = 0.927 | 1013.47 ± 0.3 | – | 1603.4 ± 6.5 | – | – | 1.242 ± 0.063
x2 = 0.9367 | 1011.51 ± 0.29 | – | 1593.2 ± 6.5 | – | – | 1.16 ± 0.063
x2 = 0.9504 | 1008.45 ± 0.28 | – | 1578 ± 6.4 | – | 1.227 ± 0.063 | 1.043 ± 0.063
x2 = 0.9551 | 1007.32 ± 0.28 | – | 1572.6 ± 6.4 | – | 1.177 ± 0.063 | 1.003 ± 0.063
x2 = 0.96 | 1006.1 ± 0.27 | – | 1566.9 ± 6.4 | – | 1.124 ± 0.063 | 0.96 ± 0.063
x2 = 0.9696 | 1003.55 ± 0.27 | – | 1555.5 ± 6.4 | – | 1.023 ± 0.063 | 0.876 ± 0.063
x2 = 0.9797 | 1000.65 ± 0.26 | – | 1543.3 ± 6.3 | – | 0.919 ± 0.063 | 0.784 ± 0.063
x2 = 0.9902 | 997.36 ± 0.26 | – | 1530.7 ± 6.3 | – | 0.815 ± 0.063 | 0.688 ± 0.063
x2 = 0.9923 | 996.67 ± 0.27 | – | 1528.2 ± 6.3 | – | 0.794 ± 0.063 | 0.668 ± 0.063
x2 = 0.9948 | 995.83 ± 0.27 | – | 1525.2 ± 6.3 | – | 0.769 ± 0.063 | 0.645 ± 0.063
